In ChEMBL document CHEMBL5338720, “Targeting σ2R/TMEM97 with novel aminotetralins” (Eur J Med Chem, 2022):
Each block holds one compound with its values, some of them ahead of it.

Key:
[1] = biological target: T1, Sigma non-opioid intracellular receptor 1 (Homo sapiens, UniProt Q99720); experiment: Binding affinity to sigma 1 receptor (unknown origin) assessed as inhibition constant
[2] = biological target: T2, Sigma intracellular receptor 2 (Homo sapiens, UniProt Q5BJF2); experiment: Binding affinity to sigma 2 receptor/TMEM97 (unknown origin) assessed as inhibition constant
[3] = Selectivity ratio of Ki for displacement of [3H](+)-pentazocine from sigma 1 receptor in guinea pig brain to Ki for displacement of [3H]-ditolylguanidine from sigma 2 receptor/TMEM97 in rat PC-12 cells; assay type: cell-based
[4] = biological target: T3, Sigma intracellular receptor 2 (Rattus norvegicus, UniProt Q5U3Y7); experiment: Displacement of [3H]-ditolylguanidine from sigma 2 receptor/TMEM97 in rat PC-12 cells assessed as inhibition constant in the presence of (+)-pentazocine by competition binding assay; assay type: cell-based
T3 sequence (Q5U3Y7 whole entry): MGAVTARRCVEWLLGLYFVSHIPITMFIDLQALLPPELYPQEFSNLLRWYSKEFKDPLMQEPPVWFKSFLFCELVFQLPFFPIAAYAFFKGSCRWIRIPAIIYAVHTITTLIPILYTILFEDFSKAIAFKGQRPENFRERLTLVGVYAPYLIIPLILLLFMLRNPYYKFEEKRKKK

[5] = biological target: Sigma non-opioid intracellular receptor 1 (Cavia porcellus, UniProt Q60492); experiment: Displacement of [3H](+)-pentazocine from sigma 1 receptor in guinea pig brain assessed as inhibition constant by competition binding assay; assay type: tissue-based
[6] = biological target: T2, Sigma intracellular receptor 2; experiment: Displacement of [3H]-ditolylguanidine from human sigma 2 receptor/TMEM97 transfected in HEK293 cells assessed as inhibition constant in the presence of (+)-pentazocine by competition binding assay; assay type: cell-based
[7] = biological target: T1, Sigma non-opioid intracellular receptor 1; experiment: Displacement of [3H](+)-pentazocine from human sigma 1 receptor transfected in HEK293 cells assessed as inhibition constant by competition binding assay; assay type: cell-based
[8] = biological target: T2, Sigma intracellular receptor 2; experiment: Potency index, ratio of JVW-1601 Ki to test compound Ki for displacement of [3H]-ditolylguanidine from human sigma 2 receptor/TMEM97 transfected in HEK293 cells assessed as inhibition constant in the presence of (+)-pentazocine by competition binding assay; assay type: cell-based
[9] = biological target: Beta-2 adrenergic receptor (Homo sapiens, UniProt P07550); experiment: Binding affinity to human beta 2 adrenergic receptor assessed as inhibition constant
[10] = biological target: Muscarinic acetylcholine receptor M1 (Homo sapiens, UniProt P11229); experiment: Binding affinity at human muscarinic M1 receptor assessed as inhibition constant
[11] = biological target: Serotonin 3 (5-HT3) receptor; experiment: Binding affinity to human 5HT3 receptor assessed as inhibition constant; assay type: protein-complex assay
[12] = biological target: 5-hydroxytryptamine receptor 1E (Homo sapiens, UniProt P28566); experiment: Binding affinity to human 5HT1E receptor assessed as inhibition constant
[13] = biological target: Alpha-2C adrenergic receptor (Homo sapiens, UniProt P18825); experiment: Binding affinity to human alpha 2C adrenergic receptor assessed as inhibition constant
[14] = Selectivity ratio of Ki for displacement of [3H](+)-pentazocine from sigma 1 receptor in guinea pig brain to Ki for displacement of [3H](+)-pentazocine from human sigma 1 receptor transfected in HEK293 cells; assay type: cell-based
[15] = Half-life in mouse at 10 mg/kg, ip; assay type: ADME, organism-based; conditions: in vivo
[16] = biological target: Beta-3 adrenergic receptor (Homo sapiens, UniProt P13945); experiment: Binding affinity to human beta 3 adrenergic receptor assessed as inhibition constant
P-glycoprotein (MDR1) = experiment: Efflux ratio of permeability in MDCK-MDR1 cells expressing P-glycoprotein; assay type: ADME, cell-based, Canis lupus familiaris; conditions: dog
[17] = biological target: GABA-A receptor; anion channel; experiment: Binding affinity at human GABA A receptor assessed as inhibition constant; assay type: protein-complex assay
[18] = biological target: Alpha-1B adrenergic receptor (Homo sapiens, UniProt P35368); experiment: Binding affinity to human alpha 1B adrenergic receptor assessed as inhibition constant
[19] = Selectivity ratio of Ki for displacement of [3H]-ditolylguanidine from human sigma 2 receptor/TMEM97 transfected in HEK293 cells to Ki for displacement of [3H]-ditolylguanidine from sigma 2 receptor/TMEM97 in rat PC-12 cells; assay type: cell-based
[20] = biological target: Muscarinic acetylcholine receptor M4 (Homo sapiens, UniProt P08173); experiment: Binding affinity at human muscarinic M4 receptor assessed as inhibition constant
[21] = Drug concentration in mouse brain at 10 mg/kg, ip measured after 4 hrs; assay type: ADME, organism-based; conditions: read-out: Ct
[22] = Ratio of drug concentration in mouse brain to plasma at 10 mg/kg, ip measured after 4 hrs; assay type: ADME, organism-based; conditions: read-out: BPR
[23] = biological target: Sodium-dependent noradrenaline transporter (Homo sapiens, UniProt P23975); experiment: Binding affinity at human Norepinephrine transporter assessed as inhibition constant
[24] = biological target: Delta-type opioid receptor (Homo sapiens, UniProt P41143); experiment: Binding affinity at human DOR assessed as inhibition constant
[25] = biological target: Sodium-dependent serotonin transporter (Homo sapiens, UniProt P31645); experiment: Binding affinity at human SERT assessed as inhibition constant
[26] = Ratio of unbound drug concentration in mouse brain to plasma at 10 mg/kg, ip measured after 4 hrs; assay type: ADME, organism-based; conditions: read-out: K(p,uu,brain)
[27] = biological target: Muscarinic acetylcholine receptor M3 (Homo sapiens, UniProt P20309); experiment: Binding affinity at human muscarinic M3 receptor assessed as inhibition constant
D(2) dopamine receptor = D(2) dopamine receptor (Homo sapiens, UniProt P14416); experiment: Binding affinity to human dopamine D2 receptor assessed as inhibition constant
[28] = biological target: Muscarinic acetylcholine receptor M2 (Homo sapiens, UniProt P08172); experiment: Binding affinity at human muscarinic M2 receptor assessed as inhibition constant
[29] = Binding affinity to human Ca2+ ion channel assessed as inhibition constant
Mu-type opioid receptor = Mu-type opioid receptor (Homo sapiens, UniProt P35372); experiment: Binding affinity at human MOR assessed as inhibition constant
[30] = biological target: Kappa-type opioid receptor (Homo sapiens, UniProt P41145); experiment: Binding affinity at human KOR assessed as inhibition constant
[31] = biological target: Beta-1 adrenergic receptor (Homo sapiens, UniProt P08588); experiment: Binding affinity to human beta 1 adrenergic receptor assessed as inhibition constant
Translocator protein = Translocator protein (Homo sapiens, UniProt P30536); experiment: Binding affinity at human PBR assessed as inhibition constant
Translocator protein, sequence (P30536 whole entry): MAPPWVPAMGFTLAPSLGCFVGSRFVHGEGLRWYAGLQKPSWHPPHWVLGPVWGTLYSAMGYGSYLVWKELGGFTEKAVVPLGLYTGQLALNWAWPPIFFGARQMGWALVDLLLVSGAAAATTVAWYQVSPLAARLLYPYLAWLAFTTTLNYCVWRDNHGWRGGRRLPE

T2 sequence (Q5BJF2 whole entry): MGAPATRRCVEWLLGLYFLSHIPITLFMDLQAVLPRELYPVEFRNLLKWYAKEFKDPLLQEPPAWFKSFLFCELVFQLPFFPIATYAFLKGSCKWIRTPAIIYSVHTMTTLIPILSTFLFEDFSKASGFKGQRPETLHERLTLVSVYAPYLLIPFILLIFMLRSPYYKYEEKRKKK
Sigma non-opioid intracellular receptor 1 (Cavia porcellus, UniProt Q60492), sequence (Q60492 whole entry): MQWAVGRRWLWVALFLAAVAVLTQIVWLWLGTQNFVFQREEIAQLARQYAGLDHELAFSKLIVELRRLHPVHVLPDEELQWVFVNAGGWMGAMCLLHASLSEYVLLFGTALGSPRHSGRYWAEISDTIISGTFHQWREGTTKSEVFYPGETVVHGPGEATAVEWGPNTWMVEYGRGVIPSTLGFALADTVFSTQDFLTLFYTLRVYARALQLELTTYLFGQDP
T1 sequence (Q99720 whole entry): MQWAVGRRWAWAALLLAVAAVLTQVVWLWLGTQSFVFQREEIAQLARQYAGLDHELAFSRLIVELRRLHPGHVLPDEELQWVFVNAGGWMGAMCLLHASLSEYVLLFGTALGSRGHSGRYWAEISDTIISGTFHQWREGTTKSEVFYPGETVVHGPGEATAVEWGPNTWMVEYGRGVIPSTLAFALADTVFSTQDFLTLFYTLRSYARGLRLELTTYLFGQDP
Beta-3 adrenergic receptor, sequence (P13945 whole entry): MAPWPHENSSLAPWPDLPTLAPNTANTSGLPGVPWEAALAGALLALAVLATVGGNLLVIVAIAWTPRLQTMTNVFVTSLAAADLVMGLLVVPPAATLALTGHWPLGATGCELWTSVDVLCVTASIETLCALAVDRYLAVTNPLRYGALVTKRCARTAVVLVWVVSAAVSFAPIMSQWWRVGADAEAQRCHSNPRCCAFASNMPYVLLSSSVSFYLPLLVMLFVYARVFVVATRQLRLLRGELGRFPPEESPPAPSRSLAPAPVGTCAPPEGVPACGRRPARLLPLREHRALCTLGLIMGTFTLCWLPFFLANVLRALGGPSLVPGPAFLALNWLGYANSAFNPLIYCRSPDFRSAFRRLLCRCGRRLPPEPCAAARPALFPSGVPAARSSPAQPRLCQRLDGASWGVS
Alpha-2C adrenergic receptor, sequence (P18825 whole entry): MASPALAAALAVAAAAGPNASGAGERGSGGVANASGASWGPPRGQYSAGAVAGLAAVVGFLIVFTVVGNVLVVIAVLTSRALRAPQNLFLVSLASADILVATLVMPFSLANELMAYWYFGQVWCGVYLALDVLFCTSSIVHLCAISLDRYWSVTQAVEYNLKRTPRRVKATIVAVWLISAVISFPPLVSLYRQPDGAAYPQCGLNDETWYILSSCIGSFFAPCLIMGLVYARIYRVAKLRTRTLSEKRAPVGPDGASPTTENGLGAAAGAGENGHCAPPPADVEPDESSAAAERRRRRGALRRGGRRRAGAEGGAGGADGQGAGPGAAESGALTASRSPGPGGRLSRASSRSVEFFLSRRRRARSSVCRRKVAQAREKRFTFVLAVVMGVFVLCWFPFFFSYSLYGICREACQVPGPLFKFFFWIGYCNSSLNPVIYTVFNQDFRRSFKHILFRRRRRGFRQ
Muscarinic acetylcholine receptor M4, sequence (P08173 whole entry): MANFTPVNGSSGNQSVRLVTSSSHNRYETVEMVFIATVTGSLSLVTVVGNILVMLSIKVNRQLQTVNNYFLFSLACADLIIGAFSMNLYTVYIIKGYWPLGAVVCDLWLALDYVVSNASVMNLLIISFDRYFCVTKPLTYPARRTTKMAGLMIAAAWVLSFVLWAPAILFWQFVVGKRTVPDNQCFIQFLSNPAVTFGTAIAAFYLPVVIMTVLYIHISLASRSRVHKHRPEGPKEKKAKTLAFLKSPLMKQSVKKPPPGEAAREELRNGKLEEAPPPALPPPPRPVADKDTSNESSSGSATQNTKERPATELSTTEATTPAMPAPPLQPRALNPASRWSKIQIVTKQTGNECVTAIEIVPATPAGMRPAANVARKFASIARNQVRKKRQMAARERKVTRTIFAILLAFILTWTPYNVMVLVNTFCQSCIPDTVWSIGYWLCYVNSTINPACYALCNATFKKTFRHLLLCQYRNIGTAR
5-hydroxytryptamine receptor 1E, sequence (P28566 whole entry): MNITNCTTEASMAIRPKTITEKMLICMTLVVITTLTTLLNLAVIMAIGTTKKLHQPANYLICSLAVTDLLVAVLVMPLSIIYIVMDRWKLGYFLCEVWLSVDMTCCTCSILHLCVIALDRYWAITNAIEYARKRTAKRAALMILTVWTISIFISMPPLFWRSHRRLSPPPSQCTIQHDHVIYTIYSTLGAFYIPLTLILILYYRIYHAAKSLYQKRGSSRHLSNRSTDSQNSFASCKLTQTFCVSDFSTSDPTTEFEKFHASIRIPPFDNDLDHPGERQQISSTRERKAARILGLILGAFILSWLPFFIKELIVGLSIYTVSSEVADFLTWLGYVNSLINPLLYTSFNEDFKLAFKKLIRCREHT
Kappa-type opioid receptor, sequence (P41145 whole entry): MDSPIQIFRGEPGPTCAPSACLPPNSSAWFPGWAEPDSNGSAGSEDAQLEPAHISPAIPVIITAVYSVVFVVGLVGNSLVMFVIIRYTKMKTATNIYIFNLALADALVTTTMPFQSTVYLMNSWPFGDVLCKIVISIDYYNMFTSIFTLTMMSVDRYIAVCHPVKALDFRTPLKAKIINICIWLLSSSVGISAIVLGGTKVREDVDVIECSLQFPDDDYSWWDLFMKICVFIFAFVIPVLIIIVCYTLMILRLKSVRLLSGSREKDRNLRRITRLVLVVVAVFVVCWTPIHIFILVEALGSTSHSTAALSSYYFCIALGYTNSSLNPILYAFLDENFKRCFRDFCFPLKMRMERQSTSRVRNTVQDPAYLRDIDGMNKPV
Sodium-dependent noradrenaline transporter, sequence (P23975 whole entry): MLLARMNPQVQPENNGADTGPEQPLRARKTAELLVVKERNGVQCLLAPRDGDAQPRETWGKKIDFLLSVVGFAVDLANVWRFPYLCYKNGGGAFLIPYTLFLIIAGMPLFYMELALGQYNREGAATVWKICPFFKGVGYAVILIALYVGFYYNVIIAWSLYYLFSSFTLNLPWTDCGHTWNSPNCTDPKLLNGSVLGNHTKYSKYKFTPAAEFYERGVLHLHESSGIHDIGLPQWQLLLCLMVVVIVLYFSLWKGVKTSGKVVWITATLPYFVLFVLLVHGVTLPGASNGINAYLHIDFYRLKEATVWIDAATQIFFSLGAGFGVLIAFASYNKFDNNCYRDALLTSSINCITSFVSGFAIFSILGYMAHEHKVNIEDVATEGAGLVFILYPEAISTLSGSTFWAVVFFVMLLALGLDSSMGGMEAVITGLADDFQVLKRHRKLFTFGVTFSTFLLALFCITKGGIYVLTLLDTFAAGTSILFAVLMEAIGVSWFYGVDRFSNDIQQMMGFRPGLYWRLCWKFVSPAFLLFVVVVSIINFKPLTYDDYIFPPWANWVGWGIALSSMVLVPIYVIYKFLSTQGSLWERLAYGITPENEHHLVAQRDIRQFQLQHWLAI
Muscarinic acetylcholine receptor M1, sequence (P11229 whole entry): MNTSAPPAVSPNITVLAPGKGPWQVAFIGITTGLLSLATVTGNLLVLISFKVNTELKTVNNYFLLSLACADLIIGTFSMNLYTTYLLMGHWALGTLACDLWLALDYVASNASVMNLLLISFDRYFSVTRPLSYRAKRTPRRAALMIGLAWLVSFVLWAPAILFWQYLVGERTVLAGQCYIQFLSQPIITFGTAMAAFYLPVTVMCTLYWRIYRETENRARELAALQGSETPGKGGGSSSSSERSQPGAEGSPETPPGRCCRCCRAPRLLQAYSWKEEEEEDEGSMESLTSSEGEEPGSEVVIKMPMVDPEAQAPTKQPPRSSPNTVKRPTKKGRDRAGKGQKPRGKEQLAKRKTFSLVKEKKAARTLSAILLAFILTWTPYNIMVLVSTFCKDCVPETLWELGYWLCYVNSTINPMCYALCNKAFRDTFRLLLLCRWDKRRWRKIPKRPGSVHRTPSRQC
Mu-type opioid receptor, sequence (P35372 whole entry): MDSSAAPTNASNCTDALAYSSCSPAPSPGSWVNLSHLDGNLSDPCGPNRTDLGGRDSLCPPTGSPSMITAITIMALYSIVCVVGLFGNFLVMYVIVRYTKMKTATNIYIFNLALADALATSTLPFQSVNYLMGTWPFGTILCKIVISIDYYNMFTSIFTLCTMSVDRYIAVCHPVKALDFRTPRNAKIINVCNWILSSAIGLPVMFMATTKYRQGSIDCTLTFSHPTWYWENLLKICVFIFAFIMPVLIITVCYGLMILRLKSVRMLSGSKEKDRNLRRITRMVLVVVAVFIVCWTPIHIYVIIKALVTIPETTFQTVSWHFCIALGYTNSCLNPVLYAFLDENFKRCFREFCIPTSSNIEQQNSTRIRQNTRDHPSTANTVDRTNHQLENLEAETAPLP
Beta-2 adrenergic receptor, sequence (P07550 whole entry): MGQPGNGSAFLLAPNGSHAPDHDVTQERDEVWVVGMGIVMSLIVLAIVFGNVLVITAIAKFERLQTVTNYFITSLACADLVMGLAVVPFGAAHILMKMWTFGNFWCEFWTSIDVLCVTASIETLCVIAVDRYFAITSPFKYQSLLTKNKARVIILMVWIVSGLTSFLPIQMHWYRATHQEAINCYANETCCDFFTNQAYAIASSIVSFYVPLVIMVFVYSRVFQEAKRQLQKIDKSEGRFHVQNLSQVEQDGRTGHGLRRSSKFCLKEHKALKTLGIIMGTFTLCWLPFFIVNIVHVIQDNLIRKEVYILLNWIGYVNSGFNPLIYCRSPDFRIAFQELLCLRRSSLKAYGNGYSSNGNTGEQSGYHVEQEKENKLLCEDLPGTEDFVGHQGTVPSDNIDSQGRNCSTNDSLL

Structure (SMILES): Clc1ccc2c(c1)C1CC2CCCN1CCc1ccccc1 (configuration not stated)
Ki [1]: 248 nM | Ki [2]: 23 nM

Structure (SMILES): CN(C(=O)OCc1ccccc1)C1CCCc2ccc(N3CCN(C4CCCCC4)CC3)cc21 (configuration not stated)
Ratio Ki [3]: 7.6 | Ki [4]: 2.1 nM | Ki [5]: 16 nM

Structure (SMILES): CCCN1CCN(c2ccc3c(c2)C(N(C)C(=O)/C=C/c2ccccc2)CCC3)CC1 (configuration not stated)
Ki [6]: 9.6 nM | Ki [7]: 196 nM | Ratio Ki [8]: 3.4

Structure (SMILES): CCCN1CCN(c2ccc3c(c2)C(N(CCC)C(=O)OCc2ccccc2)CCC3)CC1 (configuration not stated)
Ki [4]: 9.4 nM | Ki [5]: 199 nM

Structure (SMILES): CCCN1CCN(c2ccc3c(c2)C(OCCCc2ccccc2)CCC3)CC1 (configuration not stated)
Ki [6]: 17 nM | Ki [5]: 21 nM

Structure (SMILES): CN(C(=O)OCc1ccccc1)C1CCCc2ccc(N3CCN(C4CCC4)CC3)cc21 (configuration not stated)
Ratio Ki [3]: 41 | Ki [4]: 12 nM | Ki [5]: 266 nM

Structure (SMILES): CCCN1CCN(c2ccc3c(c2)C(OCc2ccccc2)CCC3)CC1 (configuration not stated)
Ki [4]: 50 nM | Ki [5]: 104 nM

Structure (SMILES): CCCN1CCN(c2ccc3c(c2)C(N(C)C(=O)Cc2ccccc2)CCC3)CC1 (configuration not stated)
Ki [6]: 53 nM | Ki [7]: 188 nM

Structure (SMILES): CC(C)N1CCN(c2ccc3c(c2)C(N(C)C(=O)OCc2ccccc2)CCC3)CC1 (configuration not stated)
Ki [4]: 8.3 nM | Ki [5]: 223 nM

Structure (SMILES): CCCN1CCN(c2ccc3c(c2)C(N(CC)C(=O)OCc2ccccc2)CCC3)CC1 (configuration not stated)
Ki [4]: 4.6 nM | Ki [5]: 321 nM

Structure (SMILES): CCN(CC)C(=O)CCN1CCN(c2ccc3c(c2)C(N(C)C(=O)OCc2ccccc2)CCC3)CC1 (configuration not stated)
Ki [4]: 7.2 nM | Ki [5]: 2100 nM

Structure (SMILES): CCCN1CCN(c2ccc3c(c2)C(OC/C=C/c2ccccc2)CCC3)CC1 (configuration not stated)
Ki [6]: 15 nM | Ki [5]: 140 nM

Structure (SMILES): CCOC(=O)CCN1CCN(c2ccc3c(c2)C(N(C)C(=O)OCc2ccccc2)CCC3)CC1 (configuration not stated)
Ki [4]: 4.5 nM | Ki [5]: 1650 nM

Structure (SMILES): CN1CCN(c2ccc3c(c2)C(N(C)C(=O)OCc2ccccc2)CCC3)CC1 (configuration not stated)
Ki [4]: 284 nM | Ki [5]: 2940 nM

Structure (SMILES): CCCN1CCN(c2ccc3c(c2)C(OC(=O)CCc2ccccc2)CCC3)CC1 (configuration not stated)
Ki [4]: 25 nM | Ki [5]: 33 nM

Structure (SMILES): CCCN1CCN(c2ccc3c(c2)C(N(C)C(=O)OCc2ccccc2)CCC3)CC1 (configuration not stated)
Ki [9]: > 10000 nM | Ki [10]: > 10000 nM | Ki [11]: > 10000 nM | Ki [12]: > 10000 nM | Ki [13]: > 10000 nM | Ratio Ki [14]: 2.5 | half-life [15]: 1.2 h | Ki [6]: 33 nM | Ki [16]: > 10000 nM | efflux ratio (P-glycoprotein (MDR1)): 1 | Ki [17]: > 10000 nM | Ki [18]: > 10000 nM | Ratio Ki [19]: 6 | Ki [20]: > 10000 nM | Ki [7]: 82 nM | concentration at 4 h [21]: 104 nM | Kp at 4 h [22]: 2.8 | Ki [23]: > 10000 nM | Ki [24]: > 10000 nM | Ki [25]: > 10000 nM | Kp uu at 4 h [26]: 0.36 | Ratio Ki [3]: 36 | Ki [27]: > 10000 nM | Ki (D(2) dopamine receptor): > 10000 nM | Ki [4]: 5.5 nM | Ki [5]: 200 nM | Ki [28]: > 10000 nM | Ki [29]: > 10000 nM | Ki (Mu-type opioid receptor): > 10000 nM | Ki [30]: > 10000 nM | Ki [31]: > 10000 nM | Ki (Translocator protein): 8330 nM

Structure (SMILES): CN(C(=O)OCc1ccccc1)C1CCCc2ccc(N3CCN(CCCO)CC3)cc21 (configuration not stated)
Ki [4]: 21 nM | Ki [5]: 474 nM

Continued, values first:

Ki [4]: 2.1 nM | Ki [5]: 86 nM
Structure (SMILES): CN(C(=O)OCc1ccccc1)C1CCCc2ccc(N3CCN(C4CCCC4)CC3)cc21 (configuration not stated)

Ki [6]: 128 nM | Ki [5]: 1050 nM
Structure (SMILES): COCCN1CCN(c2ccc3c(c2)C(N(C)C(=O)OCc2ccccc2)CCC3)CC1 (configuration not stated)

Ki [4]: 16.6 nM
Structure (SMILES): CCCN1CCN(c2ccc3c(c2)C(N(CCCCCCCCCCCN)C(=O)OCc2ccccc2)CCC3)CC1 (configuration not stated)

Ki [6]: 35 nM | Ki [5]: 187 nM
Structure (SMILES): CCCN1CCN(c2ccc3c(c2)C(N(CCC(=O)OCC)C(=O)OCc2ccccc2)CCC3)CC1 (configuration not stated)

Ki [6]: 17 nM | Ki [5]: 973 nM | Ratio Ki [8]: 2
Structure (SMILES): CCCN1CCN(c2ccc3c(c2)C(N(C)C(=O)CCc2ccccc2)CCC3)CC1 (configuration not stated)

Ki [6]: 135 nM | Ki [5]: 254 nM
Structure (SMILES): CCCN1CCN(c2ccc3c(c2)C(N(CCCO)C(=O)OCc2ccccc2)CCC3)CC1 (configuration not stated)

Ki [4]: 894 nM | Ki [5]: > 10000 nM
Structure (SMILES): CCOC(=O)CN1CCN(c2ccc3c(c2)C(N(C)C(=O)OCc2ccccc2)CCC3)CC1 (configuration not stated)

Ki [4]: 26 nM | Ki [5]: 12 nM
Structure (SMILES): CCCN1CCN(c2cccc3c2CCCC3N(C)C(=O)OCc2ccccc2)CC1 (configuration not stated)

Ki [4]: 13 nM | Ki [5]: 40 nM
Structure (SMILES): CCCN1CCN(c2ccc3c(c2)CCCC3N(C)C(=O)OCc2ccccc2)CC1 (configuration not stated)

Ki [4]: 35 nM | Ki [5]: 887 nM
Structure (SMILES): CCN1CCN(c2ccc3c(c2)C(N(C)C(=O)OCc2ccccc2)CCC3)CC1 (configuration not stated)
